Key:
[1] = tested on: blood coagulation functions in rats; assay: Sub-acute toxic effect on blood coagulation functions in rats; type: in vivo
[2] = Effect on body weight of rats; type: in vivo; details: for BW: in g (unit assumed)
[3] = Acute toxicity (LD50), mouse; details: in vivo
[4] = Day 6, rats F, ig group 20 mg/kg
[5] = Day 6, rats F, iv group 12 mg/kg
[6] = Day 6, rats M, ig group 20 mg/kg
[7] = Day 6, rats M, iv group 12 mg/kg
[8] = Day 11, rats F, ig group 20 mg/kg
[9] = Day 11, rats F, iv group 12 mg/kg
[10] = Day 11, rats M, ig group 20 mg/kg
[11] = Day 11, rats M, iv group 12 mg/kg
[12] = Day 16, rats F, ig group 20 mg/kg
[13] = Day 16, rats F, iv group 12 mg/kg
[14] = Day 16, rats M, ig group 20 mg/kg
[15] = Day 16, rats M, iv group 12 mg/kg
[16] = Day 21, rats F, ig group 20 mg/kg
[17] = Day 21, rats F, iv group 12 mg/kg
[18] = Day 21, rats M, ig group 20 mg/kg
[19] = Day 21, rats M, iv group 12 mg/kg
[20] = Day 24, rats F, ig group 20 mg/kg
[21] = Day 24, rats F, iv group 12 mg/kg
[22] = Day 24, rats M, ig group 20 mg/kg
[23] = Day 24, rats M, iv group 12 mg/kg

CCCCC(O)c1ccc(Br)cc1C(=O)[O-].[Na+] (stereo not drawn) [BZP (amorphous form), 5-bromo-2-(α-hydroxypentyl)benzoic acid sodium salt]
APTT ([1]; rats F, ig (20 mg/kg)): 22.8 ± 5.9 s
FIB ([1]; rats F, ig (20 mg/kg)): 7.22 ± 0.97 g/L
PT ([1]; rats F, ig (20 mg/kg)): 17.5 ± 2.2 s
TT ([1]; rats F, ig (20 mg/kg)): 27.3 ± 2.4 s
APTT ([1]; rats F, iv (12 mg/kg)): 22.3 ± 8.5 s
FIB ([1]; rats F, iv (12 mg/kg)): 6.63 ± 0.95 g/L
PT ([1]; rats F, iv (12 mg/kg)): 18.8 ± 3.3 s
TT ([1]; rats F, iv (12 mg/kg)): 27.5 ± 2.8 s
APTT ([1]; rats M, ig (20 mg/kg)): 26.5 ± 3.2 s
FIB ([1]; rats M, ig (20 mg/kg)): 7.03 ± 0.29 g/L
PT ([1]; rats M, ig (20 mg/kg)): 16.4 ± 3.4 s
TT ([1]; rats M, ig (20 mg/kg)): 26.9 ± 5.9 s
APTT ([1]; rats M, iv (12 mg/kg)): 23.7 ± 2.1 s
FIB ([1]; rats M, iv (12 mg/kg)): 6.28 ± 0.55 g/L
PT ([1]; rats M, iv (12 mg/kg)): 17.5 ± 2.0 s
TT ([1]; rats M, iv (12 mg/kg)): 27.1 ± 3.8 s
BW ([2]; Day 1, rats F, ig group 20 mg/kg): 179 ± 12
BW ([2]; Day 1, rats F, iv group 12 mg/kg): 182 ± 13
BW ([2]; Day 1, rats M, ig group 20 mg/kg): 183 ± 8
BW ([2]; Day 1, rats M, iv group 12 mg/kg): 179 ± 13
ΔW (%) [2, 4]: 7 ± 4%
BW [2, 4]: 192 ± 16
ΔW (%) [2, 5]: 7 ± 2%
BW [2, 5]: 195 ± 12
ΔW (%) [2, 6]: 15 ± 3%
BW [2, 6]: 210 ± 8
ΔW (%) [2, 7]: 14 ± 6%
BW [2, 7]: 204 ± 7
ΔW (%) [2, 8]: 7 ± 2 %
BW [2, 8]: 203 ± 14
ΔW (%) [2, 9]: 3 ± 2 %
BW [2, 9]: 200 ± 15
ΔW (%) [2, 10]: 17 ± 5%
BW [2, 10]: 245 ± 12
ΔW (%) [2, 11]: 14 ± 2 %
BW [2, 11]: 238 ± 6
ΔW (%) [2, 12]: 25 ± 4 %
BW [2, 12]: 224 ± 11
ΔW (%) [2, 13]: 21 ± 7 %
BW [2, 13]: 212 ± 14
ΔW (%) [2, 14]: 53 ± 14%
BW [2, 14]: 280 ± 18
ΔW (%) [2, 15]: 31 ± 10%
BW [2, 15]: 270 ± 6
ΔW (%) [2, 16]: 29 ± 6 %
BW [2, 16]: 230 ± 15
ΔW (%) [2, 17]: 23 ± 6 %
BW [2, 17]: 223 ± 20
ΔW (%) [2, 18]: 75 ± 14%
BW [2, 18]: 320 ± 18
ΔW (%) [2, 19]: 66 ± 15 %
BW [2, 19]: 296 ± 8
ΔW (%) [2, 20]: 31 ± 5 %
BW [2, 20]: 235 ± 12
ΔW (%) [2, 21]: 21 ± 6 %
BW [2, 21]: 221 ± 19
ΔW (%) [2, 22]: 84 ± 14%
BW [2, 22]: 337 ± 18
ΔW (%) [2, 23]: 71 ± 16 %
BW [2, 23]: 304 ± 10
LD50 ([3]; iv): 323 mg/kg
LD50 ([3]; po): 927 mg/kg
